Active and inactive are the calls of the source. No cut-off for these calls is given here.
Tests used:
U-937 [1] = assay: Induction of cell cycle arrest in human U-937 cells assessed as accumulation at G0/G1 phase at 11 nM measured after 24 hrs by propidium iodide staining based flow cytometric analysis (reference value: 62.95%); type: functional
[2] = target: Tyrosine-protein kinase TXK (Homo sapiens) (UniProt P42681); assay: Inhibition of TXK (unknown origin) at 0.5 uM relative to control
[3] = target: T1, Non-receptor tyrosine-protein kinase TYK2 (Homo sapiens, UniProt P29597); assay: Inhibition of human TYK2
T1 sequence (P29597 whole entry): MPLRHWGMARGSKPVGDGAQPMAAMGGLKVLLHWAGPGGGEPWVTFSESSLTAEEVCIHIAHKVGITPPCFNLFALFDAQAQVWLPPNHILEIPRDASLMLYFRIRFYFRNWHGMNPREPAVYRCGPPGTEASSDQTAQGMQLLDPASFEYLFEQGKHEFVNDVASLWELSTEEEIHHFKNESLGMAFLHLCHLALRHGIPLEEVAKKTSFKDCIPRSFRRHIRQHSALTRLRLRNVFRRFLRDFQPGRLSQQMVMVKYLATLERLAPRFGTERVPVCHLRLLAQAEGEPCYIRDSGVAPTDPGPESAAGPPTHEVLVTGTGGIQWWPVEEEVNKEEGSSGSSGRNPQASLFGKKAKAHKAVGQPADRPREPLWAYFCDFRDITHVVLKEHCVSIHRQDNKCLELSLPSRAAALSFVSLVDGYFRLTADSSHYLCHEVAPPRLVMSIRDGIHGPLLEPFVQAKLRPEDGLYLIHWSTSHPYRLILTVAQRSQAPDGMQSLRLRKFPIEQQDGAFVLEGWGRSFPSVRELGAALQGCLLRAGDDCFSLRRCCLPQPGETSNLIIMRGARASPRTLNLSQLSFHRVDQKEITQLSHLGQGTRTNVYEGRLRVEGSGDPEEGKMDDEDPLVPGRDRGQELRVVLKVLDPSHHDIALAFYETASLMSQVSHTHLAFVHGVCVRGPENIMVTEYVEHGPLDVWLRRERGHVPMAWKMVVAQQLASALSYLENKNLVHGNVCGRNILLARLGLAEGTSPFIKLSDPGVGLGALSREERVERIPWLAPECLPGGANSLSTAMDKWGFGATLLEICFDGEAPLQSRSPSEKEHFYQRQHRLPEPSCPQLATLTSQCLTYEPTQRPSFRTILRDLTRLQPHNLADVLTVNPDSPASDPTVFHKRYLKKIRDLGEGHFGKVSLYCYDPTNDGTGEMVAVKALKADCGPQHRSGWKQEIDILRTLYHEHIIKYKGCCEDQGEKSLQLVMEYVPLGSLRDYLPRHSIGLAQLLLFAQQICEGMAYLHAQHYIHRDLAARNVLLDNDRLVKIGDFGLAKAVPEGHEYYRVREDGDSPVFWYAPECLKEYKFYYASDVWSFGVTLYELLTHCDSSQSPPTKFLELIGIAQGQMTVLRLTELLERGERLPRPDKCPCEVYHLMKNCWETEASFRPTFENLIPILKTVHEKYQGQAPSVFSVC

U-937 [4] = assay: Induction of cell cycle arrest in human U-937 cells assessed as accumulation at S phase at 11 nM measured after 24 hrs by propidium iodide staining based flow cytometric analysis (reference value: 15.35%); type: functional
[5] = target: Tyrosine-protein kinase Tec (Homo sapiens) (UniProt P42680); assay: Inhibition of TEC (unknown origin) at 0.5 uM relative to control
Tyrosine-protein kinase Tec (Homo sapiens), sequence (P42680 whole entry): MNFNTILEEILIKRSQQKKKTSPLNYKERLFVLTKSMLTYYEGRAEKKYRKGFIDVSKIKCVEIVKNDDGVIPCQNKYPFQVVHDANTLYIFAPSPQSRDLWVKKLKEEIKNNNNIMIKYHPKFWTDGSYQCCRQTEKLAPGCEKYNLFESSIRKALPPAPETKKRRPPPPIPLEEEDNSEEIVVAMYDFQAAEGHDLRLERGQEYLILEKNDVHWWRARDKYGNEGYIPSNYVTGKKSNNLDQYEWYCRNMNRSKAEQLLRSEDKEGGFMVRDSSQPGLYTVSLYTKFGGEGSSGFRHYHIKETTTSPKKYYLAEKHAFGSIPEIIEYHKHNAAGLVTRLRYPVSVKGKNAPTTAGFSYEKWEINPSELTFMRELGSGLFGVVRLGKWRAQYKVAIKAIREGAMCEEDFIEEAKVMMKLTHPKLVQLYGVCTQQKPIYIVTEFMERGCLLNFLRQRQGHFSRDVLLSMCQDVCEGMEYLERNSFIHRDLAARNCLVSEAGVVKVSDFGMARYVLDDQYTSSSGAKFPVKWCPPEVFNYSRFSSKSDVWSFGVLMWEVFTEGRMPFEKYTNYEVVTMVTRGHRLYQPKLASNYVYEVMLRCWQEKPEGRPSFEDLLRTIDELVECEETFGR

[6] = target: Cytoplasmic tyrosine-protein kinase BMX (Homo sapiens) (UniProt P51813); assay: Inhibition of BMX (unknown origin) at 0.5 uM assessed as competition rate relative to control
Cytoplasmic tyrosine-protein kinase BMX (Homo sapiens), sequence (P51813 whole entry): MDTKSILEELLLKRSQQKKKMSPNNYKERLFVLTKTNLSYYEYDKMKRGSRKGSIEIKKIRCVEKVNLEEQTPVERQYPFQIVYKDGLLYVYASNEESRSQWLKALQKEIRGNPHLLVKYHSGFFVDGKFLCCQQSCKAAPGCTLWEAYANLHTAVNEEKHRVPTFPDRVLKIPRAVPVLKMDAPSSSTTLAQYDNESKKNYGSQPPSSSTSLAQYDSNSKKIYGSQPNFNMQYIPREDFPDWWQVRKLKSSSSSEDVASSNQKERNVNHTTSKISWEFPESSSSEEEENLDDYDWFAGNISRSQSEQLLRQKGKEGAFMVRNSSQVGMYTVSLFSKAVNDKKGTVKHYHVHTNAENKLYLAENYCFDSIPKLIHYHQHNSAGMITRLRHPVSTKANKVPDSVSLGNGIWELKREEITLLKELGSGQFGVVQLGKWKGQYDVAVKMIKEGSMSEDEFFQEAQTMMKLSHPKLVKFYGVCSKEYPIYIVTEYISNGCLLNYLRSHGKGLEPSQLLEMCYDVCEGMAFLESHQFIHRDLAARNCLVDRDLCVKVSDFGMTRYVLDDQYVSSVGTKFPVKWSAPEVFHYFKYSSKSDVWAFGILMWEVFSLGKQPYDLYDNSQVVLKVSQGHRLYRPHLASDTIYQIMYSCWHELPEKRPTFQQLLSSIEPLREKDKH

[7] = target: T2, Signal transducer and activator of transcription 5A (Homo sapiens) (UniProt P42229); assay: Inhibition of STAT5 activation in human U-937 cells assessed as decrease in P-STAT5 incubated for 0 to 24 hrs by Western blot analysis; type: cell-based; details: time 0-24 hrs, DDE = dose-dependent effect
T2 sequence (whole entry): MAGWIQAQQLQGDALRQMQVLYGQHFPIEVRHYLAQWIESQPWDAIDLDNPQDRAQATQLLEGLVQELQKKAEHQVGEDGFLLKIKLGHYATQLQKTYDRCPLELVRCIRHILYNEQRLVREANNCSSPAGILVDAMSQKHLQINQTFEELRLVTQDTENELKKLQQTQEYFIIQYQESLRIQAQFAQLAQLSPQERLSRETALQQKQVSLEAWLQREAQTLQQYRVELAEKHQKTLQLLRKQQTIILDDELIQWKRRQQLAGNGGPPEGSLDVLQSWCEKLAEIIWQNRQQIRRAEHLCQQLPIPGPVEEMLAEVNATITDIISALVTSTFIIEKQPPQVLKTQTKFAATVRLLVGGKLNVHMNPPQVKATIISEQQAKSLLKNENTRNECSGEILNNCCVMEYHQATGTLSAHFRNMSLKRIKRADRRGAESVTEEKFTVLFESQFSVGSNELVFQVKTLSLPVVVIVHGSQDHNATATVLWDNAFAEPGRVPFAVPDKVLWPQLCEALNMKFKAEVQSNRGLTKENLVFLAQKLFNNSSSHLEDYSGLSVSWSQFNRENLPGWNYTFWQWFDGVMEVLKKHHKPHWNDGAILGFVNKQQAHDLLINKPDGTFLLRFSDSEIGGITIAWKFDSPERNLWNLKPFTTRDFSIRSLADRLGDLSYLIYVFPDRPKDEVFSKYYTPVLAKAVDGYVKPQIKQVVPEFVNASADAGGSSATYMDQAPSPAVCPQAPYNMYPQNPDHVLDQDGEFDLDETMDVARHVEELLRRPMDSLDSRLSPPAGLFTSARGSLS

[8] = AUC(0 to infinity) in 12 hr fasted SPF Sprague-Dawley rat at 15 mg/kg, po upon 2 hrs fasting post-administration upto 24 hrs; type: ADME, organism-based; parameters: dose 15 mg/kg, time < 24 hrs, route po; details: in vivo
[9] = target: Tyrosine-protein kinase Blk (Homo sapiens) (UniProt P51451); assay: Inhibition of BLK (unknown origin) at 0.5 uM assessed as competition rate relative to control
Tyrosine-protein kinase Blk (Homo sapiens), sequence (P51451 2-505 limits assumed): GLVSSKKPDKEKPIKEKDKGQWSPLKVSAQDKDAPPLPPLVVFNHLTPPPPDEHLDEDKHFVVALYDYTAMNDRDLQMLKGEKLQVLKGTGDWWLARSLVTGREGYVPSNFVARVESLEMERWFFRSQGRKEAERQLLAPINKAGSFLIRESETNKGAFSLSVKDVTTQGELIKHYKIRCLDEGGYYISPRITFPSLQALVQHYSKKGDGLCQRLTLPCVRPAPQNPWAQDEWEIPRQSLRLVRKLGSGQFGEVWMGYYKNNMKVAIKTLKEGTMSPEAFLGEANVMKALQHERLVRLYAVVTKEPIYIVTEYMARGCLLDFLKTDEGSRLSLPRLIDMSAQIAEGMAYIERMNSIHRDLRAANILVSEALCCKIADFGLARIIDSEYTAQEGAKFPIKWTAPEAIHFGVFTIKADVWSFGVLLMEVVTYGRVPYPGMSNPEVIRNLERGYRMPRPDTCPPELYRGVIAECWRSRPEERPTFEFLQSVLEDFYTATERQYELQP

[10] = target: Tyrosine-protein kinase BTK (Homo sapiens) (UniProt Q06187); assay: Inhibition of BTK (unknown origin) at 0.5 uM assessed as competition rate relative to control
Tyrosine-protein kinase BTK (Homo sapiens), sequence (Q06187 whole entry): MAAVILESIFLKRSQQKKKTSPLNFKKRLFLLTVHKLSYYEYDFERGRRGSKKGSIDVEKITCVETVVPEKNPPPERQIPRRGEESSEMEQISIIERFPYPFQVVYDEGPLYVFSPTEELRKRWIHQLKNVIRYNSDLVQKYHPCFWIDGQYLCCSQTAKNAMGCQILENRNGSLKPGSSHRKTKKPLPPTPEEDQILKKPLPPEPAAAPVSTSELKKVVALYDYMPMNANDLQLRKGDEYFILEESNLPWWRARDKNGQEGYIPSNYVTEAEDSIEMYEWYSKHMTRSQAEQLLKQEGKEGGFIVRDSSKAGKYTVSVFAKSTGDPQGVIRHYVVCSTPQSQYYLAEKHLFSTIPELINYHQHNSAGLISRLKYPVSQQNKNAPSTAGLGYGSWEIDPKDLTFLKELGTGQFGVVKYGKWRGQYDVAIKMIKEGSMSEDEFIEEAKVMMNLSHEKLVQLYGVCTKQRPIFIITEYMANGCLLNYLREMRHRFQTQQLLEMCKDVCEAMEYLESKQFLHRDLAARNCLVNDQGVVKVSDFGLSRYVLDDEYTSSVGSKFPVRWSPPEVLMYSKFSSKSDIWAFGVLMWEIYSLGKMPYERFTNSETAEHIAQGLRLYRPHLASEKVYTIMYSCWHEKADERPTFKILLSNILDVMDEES

[11] = target: T1, Non-receptor tyrosine-protein kinase TYK2; assay: Inhibition of human TYK2 at 0.5 uM relative to control
U-937 [12] = assay: Induction of cell cycle arrest in human U-937 cells assessed as accumulation at G0/G1 phase at 33 nM measured after 24 hrs by propidium iodide staining based flow cytometric analysis (reference value: 62.95%); type: functional
[13] = target: NUAK family SNF1-like kinase 1 (Homo sapiens) (UniProt O60285); assay: Inhibition of human ARK5 at 0.5 uM relative to control
NUAK family SNF1-like kinase 1 (Homo sapiens), sequence (O60285 whole entry): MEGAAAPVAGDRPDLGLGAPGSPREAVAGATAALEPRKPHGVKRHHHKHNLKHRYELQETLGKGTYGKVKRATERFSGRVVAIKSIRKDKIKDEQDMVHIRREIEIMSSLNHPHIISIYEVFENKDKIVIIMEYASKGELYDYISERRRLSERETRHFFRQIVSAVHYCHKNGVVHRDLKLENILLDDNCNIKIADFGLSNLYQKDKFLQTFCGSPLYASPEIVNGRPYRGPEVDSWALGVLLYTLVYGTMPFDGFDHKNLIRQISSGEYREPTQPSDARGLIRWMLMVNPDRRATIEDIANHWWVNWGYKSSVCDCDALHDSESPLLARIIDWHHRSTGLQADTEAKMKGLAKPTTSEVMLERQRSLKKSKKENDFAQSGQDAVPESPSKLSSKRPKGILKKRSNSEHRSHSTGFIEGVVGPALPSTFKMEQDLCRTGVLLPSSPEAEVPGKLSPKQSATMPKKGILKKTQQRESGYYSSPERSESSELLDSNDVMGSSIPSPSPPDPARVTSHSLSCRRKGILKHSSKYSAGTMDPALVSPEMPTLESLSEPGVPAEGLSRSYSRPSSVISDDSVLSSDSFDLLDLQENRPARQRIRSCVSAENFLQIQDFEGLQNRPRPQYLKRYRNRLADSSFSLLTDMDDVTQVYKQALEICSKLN

BaF3 = assay: cells; details: Mus musculus, BaF3, 72 h
[14] = target: T3, Tyrosine-protein kinase JAK3 (Homo sapiens, UniProt P52333)
T3 sequence (P52333 whole entry): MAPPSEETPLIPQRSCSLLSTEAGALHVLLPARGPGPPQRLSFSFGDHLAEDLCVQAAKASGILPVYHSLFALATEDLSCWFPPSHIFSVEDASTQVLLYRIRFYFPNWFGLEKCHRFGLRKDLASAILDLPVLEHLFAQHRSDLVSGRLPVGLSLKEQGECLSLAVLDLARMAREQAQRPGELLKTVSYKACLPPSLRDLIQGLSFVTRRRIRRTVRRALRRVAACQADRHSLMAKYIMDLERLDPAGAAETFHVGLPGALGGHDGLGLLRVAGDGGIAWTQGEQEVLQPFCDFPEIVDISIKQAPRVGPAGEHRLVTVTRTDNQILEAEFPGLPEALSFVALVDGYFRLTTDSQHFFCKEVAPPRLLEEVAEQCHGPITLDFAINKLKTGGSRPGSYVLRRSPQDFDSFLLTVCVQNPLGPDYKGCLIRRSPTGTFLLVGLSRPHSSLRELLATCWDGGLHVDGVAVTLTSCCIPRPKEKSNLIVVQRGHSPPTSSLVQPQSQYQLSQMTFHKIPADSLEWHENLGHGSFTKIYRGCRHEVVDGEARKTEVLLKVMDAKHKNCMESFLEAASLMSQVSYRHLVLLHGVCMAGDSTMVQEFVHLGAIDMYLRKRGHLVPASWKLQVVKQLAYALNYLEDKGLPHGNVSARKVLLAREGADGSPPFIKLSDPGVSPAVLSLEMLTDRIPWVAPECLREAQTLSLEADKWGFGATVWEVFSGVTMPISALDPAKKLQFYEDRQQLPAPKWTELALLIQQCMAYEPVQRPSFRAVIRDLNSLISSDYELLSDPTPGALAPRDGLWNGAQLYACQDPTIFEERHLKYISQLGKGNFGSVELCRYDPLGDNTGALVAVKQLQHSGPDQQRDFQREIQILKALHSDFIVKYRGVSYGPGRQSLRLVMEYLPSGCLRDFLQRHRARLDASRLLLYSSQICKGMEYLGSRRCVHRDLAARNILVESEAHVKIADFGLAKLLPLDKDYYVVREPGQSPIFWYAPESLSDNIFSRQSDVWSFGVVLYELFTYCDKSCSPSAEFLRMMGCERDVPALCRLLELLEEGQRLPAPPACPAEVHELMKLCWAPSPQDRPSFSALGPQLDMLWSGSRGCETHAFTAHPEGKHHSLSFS
Description: Inhibition of GST tagged recombinant human JAK3 expressed in baculovirus infection system by FRET assay

[15] = target: Tyrosine-protein kinase BTK (Homo sapiens) (UniProt Q06187); assay: Inhibition of BTK (unknown origin) at 0.5 uM relative to control
U-937 [16] = assay: Induction of cell cycle arrest in human U-937 cells assessed as downregulation of CDK6 at 0 to 300 nM measured after 24 hrs by western blot analysis; type: functional, cell-based; details: dose 0-300 nM

Tyrosine-protein kinase TXK (Homo sapiens), sequence (P42681 whole entry): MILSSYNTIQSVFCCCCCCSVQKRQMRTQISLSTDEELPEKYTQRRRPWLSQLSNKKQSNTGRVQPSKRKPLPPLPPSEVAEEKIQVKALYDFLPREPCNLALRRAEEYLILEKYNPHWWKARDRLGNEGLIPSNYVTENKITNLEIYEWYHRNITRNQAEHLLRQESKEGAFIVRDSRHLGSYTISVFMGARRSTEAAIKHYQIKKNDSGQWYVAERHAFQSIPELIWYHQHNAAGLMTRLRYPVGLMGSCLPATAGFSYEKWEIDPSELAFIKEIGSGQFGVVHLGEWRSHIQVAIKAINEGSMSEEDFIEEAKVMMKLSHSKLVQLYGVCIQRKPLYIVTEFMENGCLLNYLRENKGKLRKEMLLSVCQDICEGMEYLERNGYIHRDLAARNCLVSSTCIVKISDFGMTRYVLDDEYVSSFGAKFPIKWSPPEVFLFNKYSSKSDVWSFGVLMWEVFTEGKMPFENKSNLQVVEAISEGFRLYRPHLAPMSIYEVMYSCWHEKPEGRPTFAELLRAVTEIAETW

inhibition [2]: 103% | IC50 [3]: 365 nM | inhibition [5]: 99% | inhibition [6]: 40% | inhibition [7]: Dde | AUC(0-inf) [8]: 334 ng·h/mL | inhibition [9]: 40% | inhibition [10]: 40% | inhibition [11]: 36% | inhibition [13]: 11% | IC50 (BaF3): 178 nM | IC50 [14]: 1.2 nM | inhibition [15]: 114%
Compound: C=CC(=O)Nc1cc(Nc2ncc(Cl)c(O[C@@H]3CO[C@H]4[C@@H]3OC[C@H]4OC)n2)ccc1N(C)CCN(C)C
Activity (U-937 [1]): 62.58% | Activity (U-937 [4]): 15.18% | Activity (U-937 [12]): 64.92% | Activity (U-937 [16]): Active
